Measured values taken from patent US20110052667A1, “COMPOSITIONS AND METHODS FOR INHIBITING ANGIOGENESIS AND TUMORIGENESIS” (Sylgen Laboratories, Inc., priority 2007, published 2011).
“Also recorded” adds a separate entry of the source.

Tests used:
[1] = system: human EphB4 promoter; assay: EphB4 promoter luciferase reporter assay in R+ cells (mouse embryo fibroblasts expressing human IGF-I receptor); type: cell-based
Source text: The TAAT motif at position −1365 of the −1500/−7mut construct used in conditions 7-9 was substituted with a TGCT motif by site directed mutagenesis. In FIG. 2, Series 1: Firefly Luciferare signal (pGL3-Luc EphB4 constructs); Seies 2: Renilla Luciferase signal (mock vector); and RLU: Relative Luciferase Units. Conditions: 1-3: −7/−1508 EphB4 promoter region; 4-6: −7/−1028 EphB4 promoter region; 7-9: −7/−1508mut EphB4 promoter construct, wherein: 1. Serum Free, EphB4 promoter −7/−1508; 2. IGF-II, 10 nM, EphB4 promoter −7/−1508; 3.10% FBS, EphB4 promoter −7/−1508; 4. Serum Free, EphB4 promoter −7/−1028; 5. IGF-II, 10 nM, EphB4 promoter −7/−1028; 6.10% FBS, EphB4 promoter −7/−1028; 7. Serum Free, EphB4 promoter −7/−1508mut; 8. IGF-II, 10 nM, EphB4 promoter −7/−1508mut; and 9.10% FBS, EphB4 promoter −7/−1508mut.
In order to establish the role of IGF-II on EphB4 expression, a mouse embryo fibroblast cell line expressing the human IGF-I receptor (R^+ cells) was transiently transfected with three variants of the human EphB4 promoter previously described by Bruhl et al., supra, along with trace amounts of a renilla luciferase mock vector. […] Cell lysates were generated and then assayed for Luciferase activity using a Promega Dual luciferase assay and a Veritas Luminescence reader (Biotek).

[2] = system: human EphB4 promoter; assay: EphB4 promoter luciferase reporter assay in R-InsR-A cells (IGF-IR null embryo fibroblasts expressing human InsR-A); type: cell-based; settings: IGF-II 10 nM
Procedure: In FIG. 3, Series 1: Firefly Luciferare signal (pGL3-Luc −1508/−7 EphB4 construct); Series 2: Renilla Luciferase signal (mock vector); and RLU=Relative Luciferase Units. Conditions: 1. R^+ cells (IGF-IR^+); Serum Free, EphB4 promoter −7/−1508; 2. R^+ cells (IGF-IR^+); IGF-II, 10 nM, EphB4 promoter −7/−1508; 3. R-IRA cells (InsR-A^+); Serum Free, EphB4 promoter −7/−1508; 4. R-IRA cells (InsR-A^+); IGF-II, 10 nM, EphB4 promoter −7/−1508.
In order to establish the role of IGF-II on EphB4 expression, a mouse embryo fibroblast cell line expressing the human IGF-I receptor (R^+ cells) was transiently transfected with three variants of the human EphB4 promoter previously described by Bruhl et al., supra, along with trace amounts of a renilla luciferase mock vector. 24 hrs post-trasfection, the cells were serum starved for 12 hrs and then stimulated (or not) with 10 nM IGF-II for 8 hrs. Cell lysates were generated and then assayed for Luciferase activity using a Promega Dual luciferase assay and a Veritas Luminescence reader (Biotek). […]

Substance: IGF-II: Insulin-like growth factor-II, used at 10 nM to stimulate cells carrying EphB4 promoter reporter constructs
- EphB4 reporter gene activation, promoter with -1500 to -1028 region deleted (-1028 to -7 construct) ([1]; 10 nM IGF-II): but not when the −1500 to −1028 region is deleted
- EphB4 gene activation (reporter gene, full length promoter -1508 to -7) ([1]; 10 nM IGF-II for 8 hrs, Dual luciferase assay, compared with serum (10% FBS)): able to stimulate EphB4 gene activation at levels comparable to the ones obtained with serum activation; also recorded: causes the activation of the EphB4 reporter gene
- EphB4 gene activation (reporter gene, promoter -7/-1508) through InsR-A [2]: comparable to that obtained through IGF-IR activation
